Experimental data reported in article PMC11071649, “Synthesis and Selective Anticancer Activity Evaluation of 2-phenylacrylonitrile Derivatives as Tubulin Inhibitors” (Current Medicinal Chemistry, 2024).

Key:
Type in all cases: cell-based, human
[1] = test system: A549 lung cancer cell; test: MTT anti-proliferative assay, A549; conditions: for IC50: MTT, 48 h
Method in brief: (§1)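 Human cell lines were obtained from ATCC and cultured in DMEM with FBS. Cells were plated in 96-well plates, exposed to compounds and assessed by MTT read-out. Activity was expressed as inhibition of net cell growth.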

[2] = test system: AGS gastric cancer cell; test: MTT anti-proliferative assay, AGS; conditions: for IC50: MTT, 48 h
Method in brief: as §1

[3] = test system: BEL-7402 liver cancer cell; test: MTT anti-proliferative assay, BEL-7402; conditions: for IC50: MTT, 48 h
Method in brief: as §1

[4] = test system: HCT116 colectal cancer cell; test: MTT anti-proliferative assay, HCT116; conditions: for IC50: MTT, 48 h, read-out: IC50 HCT-116
Method in brief: as §1

[5] = test system: HeLa cervical cancer cell; test: MTT anti-proliferative assay, HeLa; conditions: MTT, 48 h
Method in brief: as §1

[6] = test system: HepG2 hepatoma cell; test: MTT anti-proliferative assay, HepG2; conditions: for IC50: MTT, 48 h, read-out: IC50 HepG-2
Method in brief: as §1

[7] = test system: L-02 normal liver cell; test: MTT assay, L-02 normal cells; conditions: 48 h
Method in brief: as §1

[8] = test system: MGC-803 late stage differentiation gastric cancer cell; test: MTT anti-proliferative assay, MGC-803; conditions: for IC50: MTT, 48 h
Method in brief: as §1

[9] = test system: MCF-7 breast cancer cell; test: MTT anti-proliferative assay, MCF-7; conditions: for IC50: MTT, 48 h
Method in brief: as §1

[10] = test system: MCF-10A normal breast cell; test: MTT assay, MCF-10A normal cells; conditions: 48 h
Method in brief: as §1

[11] = test system: Raji B lymphoblastoid cell; test: MTT anti-proliferative assay, Raji; conditions: for IC50: MTT, 48 h, read-out: IC50 Raji
Method in brief: as §1

[12] = test system: SGC-7901 early differentiation gastric cancer cell; test: MTT anti-proliferative assay, SGC-7901; conditions: for IC50: MTT, 48 h
Method in brief: as §1

[13] = test system: diffuse large B-cell lymphoma SU-DHL-10 cell; test: MTT anti-proliferative assay, SU-DHL-10; conditions: for IC50: MTT, 48 h, read-out: IC50 SU-DHL-10
Method in brief: as §1

Row | Compound | IC50 [1] [µM] | SI (selectivity index), IC50 (L-02)/IC50 (AGS) [2] | IC50 [2] [µM] | IC50 [3] [µM] | IC50 [4] [µM] | IC50 [5] [µM] | IC50 [6] [µM] | IC50 [7] [µM] | SI (selectivity index), IC50 (L-02)/IC50 (MGC-803) [8] | IC50 [8] [µM] | IC50 [9] [µM] | IC50 [10] [µM] | SI (selectivity index), IC50 (L-02)/IC50 (Raji) [11] | IC50 [11] [µM] | IC50 [12] [µM] | IC50 [13] [µM] | also measured
1 | Cc1ccc(/C=C(\C#N)c2ccccc2OC(F)(F)F)cc1 [Compound 1c2d] | 50.7 ± 7.4 | > 15.6 | 6.3 ± 0.4 | 17.4 ± 4.2 | > 100 | > 100 | 26.7 ± 10.1 | > 100 | > 7.6 | 13.1 ± 3.6 | > 100 | > 100 | > 1.6 | 60.5 ± 19.1 | 50.1 ± 5.9 | > 100 | SI (selectivity index), IC50 (L-02)/IC50 (A549) [1]: > 1.9; SI (selectivity index), IC50 (L-02)/IC50 (BEL-7402) [3]: > 5.7; SI (selectivity index), IC50 (L-02)/IC50 (HepG-2) [6]: > 3.7; SI (selectivity index), IC50 (L-02)/IC50 (SGC-7901) [12]: > 1.9
2 | COc1ccc(/C=C(\C#N)c2ccccc2OC(F)(F)F)cc1 [Compound 1c2e] | > 100 | > 4.7 | 7.6 ± 0.6 | 10.8 ± 2.3 | 8.4 ± 2.4 | 75.8 ± 12.4 | 24.9 ± 7 | 36.1 ± 4.8 | > 14.2 | 2.5 ± 1.1 | > 100 | > 100 |  | 41.3 ± 5.5 | 7.8 ± 0.8 | > 100 | SI (selectivity index), IC50 (L-02)/IC50 (BEL-7402) [3]: > 3.3; SI (selectivity index), IC50 (L-02)/IC50 (HCT-116) [4]: > 4.2; SI (selectivity index), IC50 (L-02)/IC50 (HepG-2) [6]: > 1.4; SI (selectivity index), IC50 (L-02)/IC50 (SGC-7901) [12]: > 4.5
3 | Cc1ccc(/C(C#N)=C/c2ccc(N(C)C)cc2)cc1 [Compound 1d2a] | > 100 | > 4.3 | 23 ± 1 | > 100 | > 100 | > 100 | > 100 | > 100 | > 5.3 | 18.8 ± 1.7 | > 100 | > 100 | > 12.5 | 7.9 ± 0.5 | > 100 | 19.9 ± 0.7 | SI (selectivity index), IC50 (L-02)/IC50 (SU-DHL-10) [13]: > 5.0
4 | CCN(CC)c1ccc(/C=C(\C#N)c2ccc(C)cc2)cc1 [Compound 1d2b] | > 100 | > 4.1 | 24.1 ± 0.2 | 65.4 ± 2.5 | 3.1 ± 0.5 | > 100 | > 100 | > 100 | > 11.5 | 8.6 ± 0.04 | 52.3 ± 2.2 | > 100 | > 8.4 | 11.8 ± 0.4 | > 100 | 42.6 ± 11.4 | SI (selectivity index), IC50 (L-02)/IC50 (BEL-7402) [3]: > 1.5; SI (selectivity index), IC50 (L-02)/IC50 (HCT-116) [4]: > 32.0; SI (selectivity index), IC50 (MCF-10A)/IC50 (MCF-7) [9]: > 1.9; SI (selectivity index), IC50 (L-02)/IC50 (SU-DHL-10) [13]: > 2.3
5 | COc1ccc(/C(C#N)=C/c2cc(OC)c(OC)c(OC)c2)cc1 [Compound 1e2a] | > 100 | > 2.8 | 18.4 ± 1.9 | 46.8 ± 5.1 | 7.2 ± 0.6 | > 100 | > 100 | 47.5 ± 12.4 | > 5.7 | 8.3 ± 1.2 | 36.9 ± 3.6 | 28.1 ± 3.6 | > 4.0 | 11.6 ± 4.9 | 38.2 ± 9 | 27.2 ± 5.3 | SI (selectivity index), IC50 (L-02)/IC50 (BEL-7402) [3]: > 1.0; SI (selectivity index), IC50 (L-02)/IC50 (HCT-116) [4]: > 6.5; SI (selectivity index), IC50 (L-02)/IC50 (SGC-7901) [12]: > 1.2; SI (selectivity index), IC50 (L-02)/IC50 (SU-DHL-10) [13]: > 1.7
6 | COc1ccc(/C(C#N)=C/c2ccc(N(C)C)cc2)cc1 [Compound 1e2b] | > 100 |  | > 100 | > 100 | > 100 | > 100 | > 100 | > 100 | > 6.6 | 15.1 ± 1.2 | > 100 | > 100 | > 7.8 | 12.7 ± 3.8 | 22.6 | > 100 | SI (selectivity index), IC50 (L-02)/IC50 (SGC-7901) [12]: > 4.4
7 | CCN(CC)c1ccc(/C=C(\C#N)c2ccc(OC)cc2)cc1 [Compound 1e2c] | > 100 |  | > 100 | > 100 | > 100 | > 100 | > 100 | > 100 |  | > 100 | > 100 | > 100 | > 5.1 | 19.3 ± 0.5 | > 100 | 62.3 ± 9.6 | SI (selectivity index), IC50 (L-02)/IC50 (SU-DHL-10) [13]: > 1.6
8 | CN(C)c1ccc(/C=C(\C#N)c2ccc(C(F)(F)F)cc2)cc1 [Compound 1f2a] | > 100 |  | > 100 | > 100 | > 100 | > 100 | > 100 | > 100 |  | > 100 | > 100 | > 100 |  | > 100 | > 100 | > 100 | 
9 | CCN(CC)c1ccc(/C=C(\C#N)c2ccc(C(F)(F)F)cc2)cc1 [Compound 1f2b] | > 100 |  | > 100 | > 100 | 33 ± 5.8 | > 100 | > 100 | > 100 |  | > 100 | > 100 | > 100 |  | > 100 | > 100 | > 100 | SI (selectivity index), IC50 (L-02)/IC50 (HCT-116) [4]: > 3.0
10 | N#C/C(=C\c1ccccc1)c1ccc(C(F)(F)F)cc1 [Compound 1f2c] | > 100 |  | > 100 | > 100 | > 100 | > 100 | > 100 | > 100 |  | > 100 | > 100 | > 100 |  | > 100 | > 100 | > 100 | 
11 | N#C/C(=C\c1ccc(F)cc1)c1ccc(C(F)(F)F)cc1 [Compound 1f2d] | > 100 |  | > 100 | > 100 | > 100 | > 100 | > 100 | > 100 | > 1.9 | 51.9 ± 2.1 | > 100 | > 100 |  | > 100 | > 100 | > 100 | 
12 | N#C/C(=C\c1ccc(Cl)cc1)c1ccc(C(F)(F)F)cc1 [Compound 1f2e] | > 100 |  | > 100 | > 100 | > 100 | > 100 | > 100 | > 100 |  | > 100 | > 100 | > 100 |  | > 100 | > 100 | > 100 | 
13 | N#C/C(=C\c1ccc(Br)cc1)c1ccc(C(F)(F)F)cc1 [Compound 1f2f] | > 100 |  | > 100 | > 100 | > 100 | > 100 | > 100 | > 100 |  | > 100 | > 100 | > 100 |  | > 100 | > 100 | > 100 | 
14 | N#C/C(=C\c1ccccc1F)c1ccc(C(F)(F)F)cc1 [Compound 1f2g] | > 100 |  | > 100 | > 100 | > 100 | > 100 | > 100 | > 100 |  | > 100 | > 100 | > 100 |  | > 100 | > 100 | > 100 | 
15 | N#C/C(=C\c1cccc(F)c1)c1ccc(C(F)(F)F)cc1 [Compound 1f2h] | > 100 |  | > 100 | > 100 | > 100 | > 100 | > 100 | > 100 |  | > 100 | > 100 | > 100 |  | > 100 | > 100 | 58.4 ± 9 | SI (selectivity index), IC50 (L-02)/IC50 (SU-DHL-10) [13]: > 1.7
16 | N#C/C(=C\c1ccccc1Br)c1ccc(C(F)(F)F)cc1 [Compound 1f2i] | > 100 | > 2.3 | 42 ± 11.7 | > 100 | > 100 | > 100 | > 100 | > 100 |  | > 100 | > 100 | > 100 |  | > 100 | > 100 | > 100 | 
17 | N#C/C(=C\c1c(F)cccc1Cl)c1ccc(C(F)(F)F)cc1 [Compound 1f2j] | > 100 |  | > 100 | > 100 | > 100 | > 100 | > 100 | > 100 |  | > 100 | > 100 | > 100 |  | > 100 | > 100 | > 100 | 
